Results published in patent publication US12077555B2, “STAT degraders and uses thereof” (Kymera Therapeutics, Inc., priority 2019, dated 2024).

Each compound was assayed against STAT3 (Homo sapiens, UniProt P40763) (assay: STAT3 HiBiT degradation assay in transfected A549 cells). Conditions: A549, 24 h; read-out: STAT3 HiBiT A549 degradation 24 h: Average external-Abs DC50.
STAT3, sequence (P40763 whole entry): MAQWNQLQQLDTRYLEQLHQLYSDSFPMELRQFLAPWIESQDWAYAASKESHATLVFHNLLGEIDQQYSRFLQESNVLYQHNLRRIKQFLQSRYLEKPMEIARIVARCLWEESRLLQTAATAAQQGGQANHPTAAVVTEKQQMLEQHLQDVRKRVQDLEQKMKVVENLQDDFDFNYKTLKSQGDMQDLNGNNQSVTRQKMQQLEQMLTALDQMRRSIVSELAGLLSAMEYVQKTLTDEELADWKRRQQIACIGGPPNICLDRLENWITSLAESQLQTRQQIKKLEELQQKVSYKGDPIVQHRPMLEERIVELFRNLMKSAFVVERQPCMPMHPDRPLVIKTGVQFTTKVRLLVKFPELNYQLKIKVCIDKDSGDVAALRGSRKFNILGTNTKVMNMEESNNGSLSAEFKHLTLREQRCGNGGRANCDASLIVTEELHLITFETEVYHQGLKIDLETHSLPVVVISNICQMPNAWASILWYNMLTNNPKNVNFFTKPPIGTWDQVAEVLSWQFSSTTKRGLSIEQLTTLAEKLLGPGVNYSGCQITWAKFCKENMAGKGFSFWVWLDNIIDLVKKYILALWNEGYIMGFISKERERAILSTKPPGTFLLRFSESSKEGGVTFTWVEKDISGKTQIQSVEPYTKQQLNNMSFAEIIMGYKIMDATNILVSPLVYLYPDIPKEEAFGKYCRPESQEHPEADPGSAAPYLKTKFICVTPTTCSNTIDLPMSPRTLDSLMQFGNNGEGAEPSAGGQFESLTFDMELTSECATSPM
Type: cell-based
Set-up: expressed in transfected cells; host or cells: A549
Protocol: Compound preparation and Cell seeding: The transfected A549 cells were harvested from dish into cell culture medium and cell numbers counted. Cells were diluted with culture medium to the desired density and 30 μL of cell suspension (about 2000 cells/well) were added into each well of a 384-well cell culture plate as designated and transferred into 37° C. 5% CO2 incubator for 24 h. Compounds were dissolved to 10 mM stock solution and 12 μL of the stock solution was transferred to a 384 LDV-plate. 3 fold, 10-point dilution was performed by transferring 4 μL compound into 8 μL DMSO using a TECAN (EVO200) liquid handler. 30 μL of diluted compound from compound source plate was transferred into the cell plate as designated by using Echo550 and transferred into 37° C. 5% CO2 incubator for 24 h.
Detection: Plates were removed from incubators and equilibrated at room temperature for 15 minutes. Nano-Glo Hibit Lytic Detection reagent (Promega Cat #N3040) was thawed and equilibrated to room temperature before the experiment. 30 μL of Nano-Glo Hibit Lytic Detection reagent was added into each well to be detected. The plates were held at room temperature for 10 min followed by reading on EnSpire.
Data analysis: The remaining activity was calculated following the formula: Remaining Activity (%)=100%×(Lumsample−LumNC)/(LumPC−LumNC). Calculate the IC50 by fitting the curve using Xlfit (v5.3.1.3), equation 201: fit=(A+((B−A)/(1+((x/C)^D)))); A: Bottom; B: Top; C: IC50; and D: Slope.
The letter codes for STAT3 DC50 include: A (<0.01 μM), B (0.01-0.1 μM), C (0.1-1.0 μM), and D (>1.0 μM).
For `Cn1c(=O)n(C2CCC(=O)NC2=O)c2cccc(CCCCCCCCC(=O)N3CC[C@H]4CC[C@@H](C(=O)N[C@@H](CCC(N)=O)C(=O)NC(c5ccccc5)c5ccccc5)N4C(=O)[C@@H](NC(=O)c4cc5cc(C(=O)P(=O)(O)O)ccc5[nH]4)C3)c21` (stereo partly drawn) [Compound I-125, 2-[[(5S,8S,10aR)-8-[[(1S)-3-carbamoyl-1-(diphenylmethylcarbamoyl)propyl]carbamoyl]-3-[9-[1-(2,6-dioxopiperidin-3-yl)-3-methyl-2-oxo-1,3-benzodiazol-4-yl]nonanoyl]-6-oxo-octahydropyrrolo[1,2-a][1,5]diazocin-5-yl]carbamoyl]-1H-indole-5-carbonylphosphonic acid], the DC50 was 100 to 1000 nM. In the case of `Cc1ncsc1-c1ccc(CNC(=O)[C@@H]2C[C@@H](O)CN2C(=O)[C@@H](NC(=O)CCc2ccc3ccc(CO[C@H](C)[C@H](CCC(N)=O)NC(=O)[C@@H]4Cc5cccc6c5N4C(=O)[C@@H](NC(=O)c4cc5cc(C(=O)P(=O)(O)O)ccc5[nH]4)CC6)cc3c2)C(C)(C)C)cc1` [Compound I-126], the DC50 is reported as > 1000 nM. With `Cc1ncsc1-c1ccc(CNC(=O)[C@@H]2C[C@@H](O)CN2C(=O)[C@@H](NC(=O)CCCc2ccc3cc(CO[C@H](C)[C@H](CCC(N)=O)NC(=O)[C@@H]4Cc5cccc6c5N4C(=O)[C@@H](NC(=O)c4cc5cc(C(=O)P(=O)(O)O)ccc5[nH]4)CC6)ccc3c2)C(C)(C)C)cc1` [Compound I-127, diammonium 2-[[(2S,11S)-2-[[(3S,4R)-1-carbamoyl-4-[[6-(3-[[(2S)-1-[(2S,4R)-4-hydroxy-2-([[4-(4-methyl-1,3-thiazol-5-yl)phenyl]methyl]carbamoyl)pyrrolidin-1-yl]-3,3-dimethyl-1-oxobutan-2-yl]carbamoyl]propyl)naphthalen-2-yl]methoxy]pentan-3-yl]carbamoyl]-12-oxo-1-azatricyclo[6.4.1.0^[4,13]]trideca-4(13),5,7-trien-11-yl]carbamoyl]-1H-indole-5-carbonylphosphonate] the DC50 was 100 to 1000 nM. `Cn1c(=O)n(C2CCC(=O)NC2=O)c2ccc(N3CCC(CCCC(=O)N4CC[C@H]5CC[C@@H](C(=O)N[C@@H](CCC(N)=O)C(=O)NC(c6ccccc6)c6ccccc6)N5C(=O)[C@@H](NC(=O)c5cc6cc(C(=O)P(=O)(O)O)ccc6[nH]5)C4)CC3)cc21` (stereo partly drawn) [Compound I-128, 2-[[(5S,8S,10aR)-8-[[(1S)-3-carbamoyl-1-(diphenylmethylcarbamoyl)propyl]carbamoyl]-3-(4-[1-[1-(2,6-dioxopiperidin-3-yl)-3-methyl-2-oxo-1,3-benzodiazol-5-yl]piperidin-4-yl]butanoyl)-6-oxo-octahydropyrrolo[1,2-a][1,5]diazocin-5-yl]carbamoyl]-1H-indole-5-carbonylphosphonic acid] was tested, and the DC50 was 100 to 1000 nM. `Cc1ncsc1-c1ccc(CNC(=O)[C@@H]2C[C@@H](O)CN2C(=O)[C@@H](NC(=O)CCC/C=C/c2ccc(CO[C@H](C)[C@H](CCC(N)=O)NC(=O)[C@@H]3Cc4cccc5c4N3C(=O)[C@@H](NC(=O)c3cc4cc(C(=O)P(=O)(O)O)ccc4[nH]3)CC5)cc2)C(C)(C)C)cc1` [Compound I-129, diammonium 2-[[(2S,11S)-2-[[(3S,4R)-1-carbamoyl-4-([4-[(1E)-5-[[(2S)-1-[(2S,4R)-4-hydroxy-2-([[4-(4-methyl-1,3-thiazol-5-yl)phenyl]methyl]carbamoyl)pyrrolidin-1-yl]-3,3-dimethyl-1-oxobutan-2-yl]carbamoyl]pent-1-en-l-yl]phenyl]methoxy)pentan-3-yl]carbamoyl]-12-oxo-1-azatricyclo[6.4.1.0^[4,13]]trideca-4(13),5,7-trien-11-yl]carbamoyl]-1H-indole-5-carbonylphosphonate] was tested, and the DC50 was 100 to 1000 nM. In the case of `Cc1ncsc1-c1ccc(CNC(=O)[C@@H]2C[C@@H](O)CC2C(=O)[C@@H](NC(=O)CC/C=C/c2ccc(CO[C@H](C)[C@H](CCC(N)=O)NC(=O)[C@@H]3Cc4cccc5c4N3C(=O)[C@@H](NC(=O)c3cc4cc(C(=O)P(=O)(O)O)ccc4[nH]3)CC5)cc2)C(C)(C)C)cc1` (stereo partly drawn) [Compound I-130, diammonium 2-[[(2S,11S)-2-[[(3S,4R)-1-carbamoyl-4-([4-[(1E)-4-[[(2S)-1-[(2S,4R)-4-hydroxy-2-([[4-(4-methyl-1,3-thiazol-5-yl)phenyl]methyl]carbamoyl)pyrrolidin-1-yl]-3,3-dimethyl-1-oxobutan-2-yl]carbamoyl]but-1-en-1-yl]phenyl]methoxy)pentan-3-yl]carbamoyl]-12-oxo-1-azatricyclo[6.4.1.0^[4,13]]trideca-4(13),5,7-trien-11-yl]carbamoyl]-1H-indole-5-carbonylphosphonate], the DC50 is reported as > 1000 nM. `Cc1ncsc1-c1ccc([C@H](C)NC(=O)[C@@H]2C[C@@H](O)CN2C(=O)[C@@H](NC(=O)CCCCc2ccc(CO[C@H](C)[C@H](CCC(N)=O)NC(=O)[C@@H]3Cc4cccc5c4N3C(=O)[C@@H](NC(=O)c3cc4cc(C(=O)O)ccc4[nH]3)CC5)cc2)C(C)(C)C)cc1` [Compound I-131, Ammonium 2-[[(2S,11S)-2-[[(3S,4R)-1-carbamoyl-4-[[4-(4-[[(2S)-1-[(2S,4R)-4-hydroxy-2-[[(1S)-1-[4-(4-methyl-1,3-thiazol-5 yl)phenyl]ethyl]carbamoyl]pyrrolidin-1-yl]-3,3-dimethyl-1-oxobutan-2-yl]carbamoyl]butyl)phenyl]methoxy]pentan-3-yl]carbamoyl]-12-oxo-1-azatricyclo[6.4.1.0^[4,13]]trideca-4(13),5,7-trien-11-yl]carbamoyl]-1H-indole-5-carboxylate] was tested, and the DC50 was > 1000 nM. In the case of `Cn1c(=O)n(C2CCC(=O)NC2=O)c2ccc(NCCCCCC(=O)N3CC[C@H]4CC[C@@H](C(=O)N[C@@H](CCC(N)=O)C(=O)NC(c5ccccc5)c5ccccc5)N4C(=O)[C@@H](NC(=O)c4cc5cc(C(=O)P(=O)(O)O)ccc5[nH]4)C3)cc21` (stereo partly drawn) [Compound I-132, 2-[[(5S,8S,10aR)-8-[[(1S)-3-carbamoyl-1-(diphenylmethylcarbamoyl)propyl]carbamoyl]-3-(6-[[1-(2,6-dioxopiperidin-3-yl)-3-methyl-2-oxo-1,3-benzodiazol-5-yl]amino]hexanoyl)-6-oxo-octahydropyrrolo[1,2-a][1,5]diazocin-5-yl]carbamoyl]-1H-indole-5-carbonylphosphonic acid], the DC50 is reported as 100 to 1000 nM. `Cc1ncsc1-c1ccc(CNC(=O)[C@@H]2C[C@@H](O)CN2C(=O)[C@@H](NC(=O)CCCc2cccc3cc(CO[C@H](C)[C@H](CCC(N)=O)NC(=O)[C@@H]4Cc5cccc6c5N4C(=O)[C@@H](NC(=O)c4cc5cc(C(=O)P(=O)(O)O)ccc5[nH]4)CC6)ccc23)C(C)(C)C)cc1` [Compound I-133, diammonium 2-[[(2S,11S)-2-[[(3S,4R)-1-carbamoyl-4-[[5-(3-[[(2S)-1-[(2S,4R)-4-hydroxy-2-([[4-(4-methyl-1,3-thiazol-5-yl)phenyl]methyl]carbamoyl)pyrrolidin-1-yl]-3,3-dimethyl-1-oxobutan-2-yl]carbamoyl]propyl)naphthalen-2-yl]methoxy]pentan-3-yl]carbamoyl]-12-oxo-1-azatricyclo[6.4.1.0^[4,13]]trideca-4(13),5,7-trien-11-yl]carbamoyl]-1H-indole-5-carbonylphosphonate] was tested, and the DC50 was 100 to 1000 nM. `Cn1c(=O)n(C2CCC(=O)NC2=O)c2ccc(N3CC(CCCC(=O)N4CC[C@H]5CC[C@@H](C(=O)N[C@@H](CCC(N)=O)C(=O)NC(c6ccccc6)c6ccccc6)N5C(=O)[C@@H](NC(=O)c5cc6cc(C(=O)P(=O)(O)O)ccc6[nH]5)C4)C3)cc21` (stereo partly drawn) [Compound I-135, 2-[[(5S,8S,10aR)-8-[[(1S)-3-carbamoyl-1-(diphenylmethylcarbamoyl)propyl]carbamoyl]-3-(4-[1-[1-(2,6-dioxopiperidin-3-yl)-3-methyl-2-oxo-1,3-benzodiazol-5-yl]azetidin-3-yl]butanoyl)-6-oxo-octahydropyrrolo[1,2-a][1,5]diazocin-5-yl]carbamoyl]-1H-indole-5-carbonylphosphonic acid] showed a DC50 of 100 to 1000 nM.

Same assay, conditions: read-out: STAT3 HiBiT A549 degradation 24 h: Average external-Abs DC50; A549, 24 h
For `Cn1c(=O)n(C2CCC(=O)NC2=O)c2cc(CCCCCCC(=O)N3CC[C@H]4CC[C@@H](C(=O)N[C@@H](CCC(N)=O)C(=O)NC(c5ccccc5)c5ccccc5)N4C(=O)[C@@H](NC(=O)c4cc5cc(C(=O)P(=O)(O)O)ccc5[nH]4)C3)ccc21` (stereo partly drawn) [Compound I-134, 2-[[(5S,8S,10aR)-8-[[(1S)-3-carbamoyl-1-(diphenylmethylcarbamoyl)propyl]carbamoyl]-3-[7-[3-(2,6-dioxopiperidin-3-yl)-1-methyl-2-oxo-1,3-benzodiazol-5-yl]heptanoyl]-6-oxo-octahydropyrrolo[1,2-a][1,5]diazocin-5-yl]carbamoyl]-1H-indole-5-carbonylphosphonic acid], the DC50 was > 1000 nM.
